Data reported in US7538129B2, “Diazonamide A analog” (Board of Regents, The University of Texas System, priority 2005, dated 2009).
“And” between values parts separate entries of the source, which are not always exact repeats. Equal entries are not always repeated. “Also recorded” adds a separate entry of the source.

Tests used:
[1] = test system: PTX10 ovarian tumor cell line; experiment: survival of PTX10 ovarian tumor cell line; type: cell-based; conditions: PTX10, FIG. 2
Text: Additional experiments testing the effect of Compound J and paclitaxel on the survival of PTX10ovarian tumor cell line are shown in FIG. 2. […] In FIG. 2, the circles represent Compound J and the diamonds represent paclitaxel.

HCT116 xenografts = experiment: growth inhibition of HCT116 xenografts; type: in vivo, mice; conditions: for #Tumor Free (day) / % Max T/C / Log10 Tumor Cell Kill: HCT116 (colon)
Description: Details of the preparation of murine models containing xenografts of HCT116 cells or PC-3 cells are described in the section following these examples. After the tumors were grown, therapy utilizing Compound J or paclitaxel was initiated. […] In FIG. 4A, the *'s represent control mice, the squares represent 5 mg/kg Compound J; the diamonds represent 20 mg/kg Compound J; and the slanted line represents 20 mg/kg paclitaxel.
The details of the protocol for Examples 19 and 20 are as follows:
• PC3 prostrate tumor cells and HCT116 colon tumor cells (acquired from the tumor repository Division of Cancer Treatment and Diagnosis (DCTD) of the NCI • Complete RPMI Media • RPMI (Cat# 11875-085, Invitrogen) • 10% Heat-inactivated (30′ 56° C.) Fetal Bovine Serum (Cat# 100-106, Gemini Bio-Products • 2 mM L-glutamine (Cat# 25030-081, Invitrogen) • 0.1 mM MEM Non-Essential Amino Acids Solution (Cat#11140-050, Invitrogen) • 10 U/ml Penicillin/10 μg/ml Streptomycin (Cat#15140-122, Invitrogen) • 1 mM Sodium Pyruvate (Cat#l 1360-070) • Trypsin-EDTA (Cat#25300-054, Invitrogen) • Ca^2+/Mg^2+-free Phosphate Buffered Saline, 5% dextrose in water • Cell Culture Dish 150 mm×25 mm (Cat# 430599, Coming, Inc.) • 10 and 25 ml pipets, standard pipet-aid, p200 and p1000 pipette tips and standard pipetmen • Athymic NCr-nu/nu nude mice at 6-12 weeks of age, either sex (Strain code: 01B74, NCI Frederick Animal Production Program—suppliers include Charles River Labs and Taconic Farms). Female mice of approximately 7 weeks of age were utilized for existing experiments. • Standard 1 cc tuberculin syringe, 30G½ and 25G⅝ needles (Becton Dickinson) • Falcon 5 ml tubes (Cat#352054) • 50 and 15 ml disposable plastic conical tubes (Falcon or similar vendor) • Trypan Blue Solution (0.4%) (Cat#T8154, Sigma) • Hausser phase contrast hemacytometer (Cat# 02-671-54, Fisher) • Ice bucket • Balance for weighing mice (accurate to 0.2 g) • Vernier calipers • Vivarium facility free from known pathogens (nude mice should be housed in isolation from conventional mice if possible—separate rooms or micro-isolator cages equipped with individual air flow; all animal housing, bedding, water should be autoclaved prior to use; standard irradiated mouse chow should be used; animals should be changed out of cages within laminar flow hood; investigators handling mice should be suitably garbed—disposable gown, bonnet, booties, gloves, mask) • AB-5 (Compound J) compound • Ethyl alcohol, 200 proof (Aaper, MFD 041205) • Cremaphor (Cat# C5135, Sigma) • Paclitaxel (Cat#ANP0010, Polymed Therapeutics) Procedure: • 1) Rapidly thaw PC3 or HCT116 cells (if necessary) in 37° C. water bath. Transfer contents to 9ml complete RPMI media. Spin 5′ at 1200 rpm (240 Xg). Discard media and resuspend pellet in 8 ml complete RPMI media. Plate in 100 mm×25 mm cell culture dish in 5% CO2, 37° C. humidified incubator. • 2) Allow to grow for 5-10 days, splitting (aspirate media, wash with 3-5 ml PBS, add 1 ml trypsin-EDTA, incubate 3-5′ at 37° C., add media to desired volume and transfer to multiple plates) 1:8 to 1:10 every 3-4 days as necessary to allow cells to enter phase of logarithmic growth. • 3) When cells are growing well, begin to expand to 150 mm×25 mm dishes. We use 20 ml of media in a 150 mm dish and use 2 ml of trypsin for splitting. When nearly confluent, there should be 2×10^7 cells/150 mm dish. • 4) Plan ahead to time arrival of nu/nu mice such that they can acclimate to animal facility for 1 week prior to injection of tumor cells. […] Plan to inject 10 million cells/mouse and allow for loss of cells/volume during injection process. That is, if 30 mice are to be injected, plan to harvest cells sufficient for at least 35 injections—35×10 million cells=3.5×10^8 cells. In the existing HCT116 experiment, 7.5×10^6 cells were injected per mouse. Five mice per group were utilized for AB-5 treatment and four mice per group were utilized for the control and paclitaxel treatments. […]

[2] = pharmacokinetics, intratumoral concentration after intravenous injection; type: in vivo; conditions: mice with MDA-MB-435 xenograft tumors
Description: Compound J was injected intravenously into mice containing xenograft tumors grown from MDA-MB-435 breast cancer cells. The intratumoral concentration of Compound J was measured as a function of time.

MDA-MB-231 = experiment: growth inhibition (GI50) of tumor cell lines; type: cell-based; conditions: MDA-MB-231, FIG. 1
Description: (§1) A number of tumor cell lines representing breast, lung, colon, ovarian and prostate cancer as well as melanoma were assayed under standard growth conditions in presence of varying amounts of diazonamide A, a hydroxylated form of Compound J, Compound J, paclitaxel and vinblastine. The results are graphed as the concentration that diminishes growth by a factor of two (GI50) in FIG. 1.

[3] = test system: melanoma tumor cell lines; experiment: growth inhibition (GI50) of tumor cell lines; type: cell-based; conditions: FIG. 1
Description: as §1

[4] = test system: MDA-MB-435 (breast) xenografts; experiment: growth inhibition of MDA-MB-435 xenografts; type: in vivo, mice; conditions: 20 mg/kg, IP
[5] = test system: ovarian cell line IGR-OV1; experiment: growth inhibition (GI50) of tumor cell lines; type: cell-based; conditions: IGR-OV1, FIG. 1
Description: as §1

SKMEL-2 = experiment: growth inhibition (GI50) of tumor cell lines; type: cell-based; conditions: SKMEL-2, FIG. 1
Description: as §1

## CC(C)[C@H](O)C(=O)N[C@H]1Cc2ccc3c(c2)[C@]24C5=C(N=C(O5)[C@H](C(C)C)NC1=O)c1ncc(o1)-c1c[nH]c5cccc(c15)-c1cccc2c1NC4O3 (stereo in doubt) [Compound J]
[1]
  percentage of cells surviving (survival fraction against concentration): more effective than paclitaxel
HCT116 xenografts; FIG. 4A, 20 mg/kg IV
  inhibition of growth of HCT116 xenografts: comparable to paclitaxel; also recorded: slows tumor growth in a manner similar to paclitaxel
HCT116 xenografts; 5 mg/kg, IP
  #Tumor Free (day): 0/5
  % Max T/C: 41.9%
  Log10 Tumor Cell Kill: 0.37
HCT116 xenografts; 5 mg/kg, IV
  #Tumor Free (day): 0/5
  % Max T/C: 26.5%
  Log10 Tumor Cell Kill: 0.54
HCT116 xenografts; 20 mg/kg, IP
  #Tumor Free (day): 0/5
  % Max T/C: 9.3%
  Log10 Tumor Cell Kill: 1.0
HCT116 xenografts; 20 mg/kg, IV
  % Max T/C: 0.2%
  Log10 Tumor Cell Kill: 1.8
HCT116 xenografts; free of tumors for over five months
  animals free of tumors: four of 10
HCT116 xenografts; tumor-free animals, over five months
  weight loss: no weight loss
[2]
  area under the curve: 3010224 ng·min/mL
[2]; mouse, tumor, read-out: terminal half-life
  half-life: 4.96 h
[2]; mouse, tumor, read-out: volume of distribution
  Vd: 2.9 L/kg
MDA-MB-231
  GI50 (concentration that diminishes growth by a factor of two): more effective than the remaining drugs
[3]
  GI50 (concentration that diminishes growth by a factor of two): less effective than the remaining drugs
[4]
  #Tumor Free (day): 0/6
  % Max T/C: 6.8% and 3.1%

## CC(=O)O[C@H]1C(=O)[C@@]2(C)[C@H]([C@H](OC(=O)c3ccccc3)[C@]3(O)C[C@H](OC(=O)[C@H](O)[C@@H](NC(=O)c4ccccc4)c4ccccc4)C(C)=C1C3(C)C)[C@]1(OC(C)=O)CO[C@@H]1C[C@@H]2O [paclitaxel, reference compound]
HCT116 xenografts; 20 mg/kg, IV
  % Max T/C: 0.2%
  Log10 Tumor Cell Kill: 3.2
[5]
  GI50 (concentration that diminishes growth by a factor of two): significantly less effective than the remaining four drugs
SKMEL-2
  GI50 (concentration that diminishes growth by a factor of two): significantly less effective than the remaining four drugs
